What was measured:
[1] = target: T1, PDE3B (Homo sapiens, UniProt Q13370); assay: SPR (Biacore S51), direct binding and competition with Epac-1 peptides; cAMP rise in HAECs lost on PDE3B siRNA; conditions: read-out: % maximal inhibition
[2] = target: T1, PDE3B; assay: SPR (Biacore S51), competition with Epac-1 peptides on immobilized PDE3B peptide; format: binding; conditions: read-out: % maximal inhibition

T1 sequence (Q13370 1-25): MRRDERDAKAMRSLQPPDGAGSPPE
T1 sequence (O95398 whole entry partner): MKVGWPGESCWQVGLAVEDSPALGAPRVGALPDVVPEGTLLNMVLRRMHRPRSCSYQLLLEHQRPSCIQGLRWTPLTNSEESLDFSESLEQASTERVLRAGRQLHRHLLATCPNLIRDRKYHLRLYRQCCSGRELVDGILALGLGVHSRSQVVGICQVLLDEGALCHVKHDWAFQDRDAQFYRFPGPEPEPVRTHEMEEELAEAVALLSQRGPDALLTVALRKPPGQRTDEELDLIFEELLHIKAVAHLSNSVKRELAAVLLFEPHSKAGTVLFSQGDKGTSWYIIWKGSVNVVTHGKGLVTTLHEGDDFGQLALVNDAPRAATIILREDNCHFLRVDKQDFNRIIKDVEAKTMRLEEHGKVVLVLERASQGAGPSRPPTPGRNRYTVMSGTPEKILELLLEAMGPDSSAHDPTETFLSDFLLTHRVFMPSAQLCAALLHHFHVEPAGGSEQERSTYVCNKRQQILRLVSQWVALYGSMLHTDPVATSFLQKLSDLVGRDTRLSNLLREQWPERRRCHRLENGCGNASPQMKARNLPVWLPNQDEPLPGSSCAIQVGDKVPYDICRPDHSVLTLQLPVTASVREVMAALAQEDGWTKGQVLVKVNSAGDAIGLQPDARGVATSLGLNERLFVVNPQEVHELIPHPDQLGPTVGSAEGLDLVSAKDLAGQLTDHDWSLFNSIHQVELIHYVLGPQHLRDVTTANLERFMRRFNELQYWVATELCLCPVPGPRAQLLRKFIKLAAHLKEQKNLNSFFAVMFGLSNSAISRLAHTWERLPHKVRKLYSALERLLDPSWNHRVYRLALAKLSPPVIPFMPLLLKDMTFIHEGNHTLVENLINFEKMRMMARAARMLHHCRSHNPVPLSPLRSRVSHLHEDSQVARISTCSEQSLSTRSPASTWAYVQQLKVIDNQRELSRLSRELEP

Compound | Emax [1] [%] | Emax [2] [%]
O=C1CCc2cc(OCCCCc3nnnn3C3CCCCC3)ccc2N1 [cilostazol, 6-[4-(1-cyclohexyl-1H-tetrazol-5-yl)butyloxy]-3,4-dihydroquinolin-2-(1H)-one] | 70 | –
Cc1[nH]c(=O)c(C#N)cc1-c1ccncc1 [milrinone] | – | 60
CN(C(=O)CCCOc1ccc2[nH]c(=O)ccc2c1)C1CCCCC1 [cilostamide] | – | 63
